Measurements reported in patent US10203327B2, “Organic compounds” (Novartis AG, priority 2013, dated 2019).
Where a SMILES comes first, the peptide text is derived from it.

Columns and labels:
human GPR23 = molecular target: T1, human GPR23 (Homo sapiens, UniProt Q99677); assay: Aequorin assay on unrelated receptor hGPR23 (selectivity); type: cell-based; details: CHO-Aeq cells expressing hGPR23
T1 construct: expressed in transfected cells; host or cells: CHO-Aeq Galpha16
Source text: (§1) Throughout this specification, the term “Aequorin assay” refers to methods for performing high throughput functional screening of GPCRs. Said methods employ recombinant cell lines stably transfected with plasmids encoding apoaequorin, a GPCR of interest and if necessary, a recombinant G protein to redirect the coupling of the GPCR toward calcium signaling. After clonal selection, the best clones are selected on the basis of pharmacological characterization, high signal to background ratio and stability of expression. This method has been developed by Euroscreen SA, 47 Rue Adrienne Bolland, 6041 Gosselies, Belgium.
(§2) QKPQLWVVPGALPQV peptide (SEQ ID NO: 2), corresponding to a putative tryptic C-term fragment (43-57) of the porcine peptide, was first synthesised for GPR15 evaluation.
(§3) Both peptides (i.e., those produced via CHO production and in vitro production in the agglutinin wheat germ extract system) were tested for GPR15 activation using Aequorin dose response curves.

human GPR15 [1] = molecular target: T2, human GPR15 (Homo sapiens, UniProt P49685); assay: Aequorin assay on human GPR15 stably expressed in recombinant cells; type: cell-based
T2 construct: expressed in transfected cells; host or cells: CHO-Aeq (with or without Galpha16), vector pEFIN3
T2 sequence (P49685 1-360): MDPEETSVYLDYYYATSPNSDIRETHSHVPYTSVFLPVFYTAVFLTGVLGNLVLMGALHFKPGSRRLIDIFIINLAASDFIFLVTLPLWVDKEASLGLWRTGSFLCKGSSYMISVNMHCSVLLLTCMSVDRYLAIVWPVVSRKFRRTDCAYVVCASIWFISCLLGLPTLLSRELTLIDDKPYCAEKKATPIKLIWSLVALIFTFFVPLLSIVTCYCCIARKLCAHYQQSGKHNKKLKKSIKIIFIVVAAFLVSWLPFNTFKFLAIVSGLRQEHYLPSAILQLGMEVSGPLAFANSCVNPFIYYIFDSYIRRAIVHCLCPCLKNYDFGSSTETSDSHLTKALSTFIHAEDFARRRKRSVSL
Source text: as §1
(§4) Plasmids encoding human and mouse GPR15 were stably transfected in CHO, 1321 N1 and HEK293 cells expressing the apoaequorin (CHO-Aeq, 1321-N1-Aeq and HEK-Aeq). GPR15 mRNA sequence integrities were checked using RT-PCR at T0 and T30 culture times in CHO cells.
An hGPR15 CHO-Gα16Aeq cell line was used for the Aequorin screening of Euroscreen proprietary libraries of natural ligands and tissue extracts collection. Specific activation of GPR15 over more than 20 other orphan GPCRs was identified in fractions from a colon aqueous extract.
as §2, §3

[2] = tested on: subjects treated for psoriasis; details: after 4 weeks; cited from earlier work
mouse GPR15 = molecular target: T3, mouse GPR15 (Mus musculus, UniProt Q0VDU3); assay: Aequorin assay on mouse GPR15 stably expressed in CHO-Aeq cells; type: cell-based; details: CHO and IV produced polypeptide
T3 construct: expressed in transfected cells; host or cells: CHO-Aeq (with or without Galpha16), vector pEFIN5
T3 sequence (Q0VDU3 1-360): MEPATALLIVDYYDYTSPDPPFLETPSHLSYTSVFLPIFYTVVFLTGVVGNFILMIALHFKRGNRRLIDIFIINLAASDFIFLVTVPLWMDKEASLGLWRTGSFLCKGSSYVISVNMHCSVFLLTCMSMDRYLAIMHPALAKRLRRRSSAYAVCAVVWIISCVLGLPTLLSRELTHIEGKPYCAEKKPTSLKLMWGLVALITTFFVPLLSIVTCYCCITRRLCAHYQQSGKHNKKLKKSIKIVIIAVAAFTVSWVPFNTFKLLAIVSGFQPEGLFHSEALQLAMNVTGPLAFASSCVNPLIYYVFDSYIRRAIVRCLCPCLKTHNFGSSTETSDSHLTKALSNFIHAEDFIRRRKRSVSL
Source text: as §1, §4, §2

SW48 cells [3] = assay: Intracellular calcium in SW48 colon cancer cells; type: cell-based, human; details: after priming
[4] = tested on: human neonatal dermal fibroblasts; assay: IP-10 (CXCL10) release from human neonatal dermal fibroblasts; type: cell-based; details: GPR15-independent
Source text: GPR15L action is also mediated by a GPR15-independent mechanism in human neonatal dermal fibroblasts. […] Interferon gamma-induced protein 10 (IP-10), also known as C—X—C motif chemokine 10 (CXCL10), is secreted by monocytes, endothelial cells, and fibroblasts in response to IFN-γ. CXCL10 binds to the cell surface chemokine receptor CXCR3 and is implicated in such processes as chemoattraction for monocytes/macrophages, T cells, NK cells, and dendritic cells, promotion of T cell adhesion to endothelial cells, antitumor activity, and inhibition of bone marrow colony formation and angiogenesis.

SW48 cells [5] = assay: Forskolin-induced cAMP in SW48 colon cancer cells; type: cell-based, human; details: pertussis toxin sensitive
human GPR15 [6] = molecular target: T2, human GPR15; assay: cAMP HTRF assay on CHO and HEK cells stably expressing hGPR15; type: cell-based
human GPRC5C = molecular target: T4, human GPRC5C (Homo sapiens, UniProt Q9NQ84); assay: Aequorin assay on unrelated receptor GPRC5C (selectivity); type: cell-based; details: CHO-Aeq cells expressing GPRC5C
T4 construct: expressed in transfected cells; host or cells: CHO-Aeq Galpha16
T4 sequence (Q9NQ84 24-441): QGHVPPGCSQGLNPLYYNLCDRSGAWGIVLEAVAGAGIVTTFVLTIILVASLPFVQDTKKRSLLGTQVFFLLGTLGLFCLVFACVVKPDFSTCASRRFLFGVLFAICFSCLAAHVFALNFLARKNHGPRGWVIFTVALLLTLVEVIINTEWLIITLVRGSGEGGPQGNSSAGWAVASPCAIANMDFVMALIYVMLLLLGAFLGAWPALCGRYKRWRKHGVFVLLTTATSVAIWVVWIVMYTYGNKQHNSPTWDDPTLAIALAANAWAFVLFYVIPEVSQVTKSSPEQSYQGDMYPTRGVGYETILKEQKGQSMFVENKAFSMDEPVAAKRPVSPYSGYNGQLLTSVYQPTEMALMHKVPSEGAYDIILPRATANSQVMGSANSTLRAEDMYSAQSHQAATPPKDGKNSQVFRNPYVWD

T1 sequence (Q99677 whole entry): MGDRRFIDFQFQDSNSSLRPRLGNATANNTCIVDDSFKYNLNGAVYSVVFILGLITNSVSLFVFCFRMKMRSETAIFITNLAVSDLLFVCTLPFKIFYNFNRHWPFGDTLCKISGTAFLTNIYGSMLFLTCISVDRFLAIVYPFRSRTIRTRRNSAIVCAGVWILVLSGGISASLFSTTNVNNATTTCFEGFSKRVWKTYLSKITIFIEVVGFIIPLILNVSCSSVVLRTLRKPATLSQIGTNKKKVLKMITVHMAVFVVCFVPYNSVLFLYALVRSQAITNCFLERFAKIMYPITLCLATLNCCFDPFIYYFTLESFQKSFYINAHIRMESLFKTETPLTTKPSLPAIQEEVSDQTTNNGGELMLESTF

Molecule | calcium/luminescence response of hGPR23 cells (human GPR23) | activation of hGPR15 CHO cell line (human GPR15 [1]; hGPR15 CHO cell line, compared with EC50 of ~2 μM) | c10orf99 mRNA [2] | reduction in the Psoriasis Area and Severity Index (PAST) [2] | activation of mouse GPR15 receptor (mouse GPR15) | intracellular calcium levels (SW48 cells [3]) | IP-10 release [4] | forskolin-induced cAMP elevation (SW48 cells [5]) | activation of hGPR15 (cAMP HTRF assay) (human GPR15 [6]) | calcium signal on GPRC5C (human GPRC5C) | activation of hGPR15 (human GPR15 [1]; CHO-Aeq cells, ligand from CHO production or IV preparation) | activation of hGPR15 in HEK-Aeq Gα16 cells (human GPR15 [1]; stably transfected HEK-Aeq Gα16 cells)
CC(C)C[C@H](NC(=O)[C@H](CCC(N)=O)NC(=O)[C@@H]1CCCN1C(=O)[C@H](CCCCN)NC(=O)[C@@H](N)CCC(N)=O)C(=O)N[C@@H](Cc1c[nH]c2ccccc12)C(=O)N[C@H](C(=O)N[C@H](C(=O)N1CCC[C@H]1C(=O)NCC(=O)N[C@@H](C)C(=O)N[C@@H](CC(C)C)C(=O)N1CCC[C@H]1C(=O)N[C@@H](CCC(N)=O)C(=O)N[C@H](C(=O)O)C(C)C)C(C)C)C(C)C [QKPQLWVVPGALPQV peptide, QKPQLWVVPGALPQV] (H-QKPQLWVVPGALPQV-OH; N-terminus and C-terminus assumed) | failed in responding | same affinity | – | – | – | – | – | – | – | – | – | –
secukinumab: fully human monoclonal antibody that selectively binds to and neutralizes IL-17A | – | – | significant decrease | 58% | – | – | – | – | – | – | – | –
KRRPAKAWSGRRTRLCCHRVPSPNSTNLKGHHVRLCKPCK LEPEPRLWVVPGALPQV (KRRPAKAWSGRRTRLCCHRVPSPNSTNLKGHHVRLCKPCKLEPEPRLWVVPGALPQV) [c10orf99, made by CHO production, in vitro translation or synthesis] | failed to induce any calcium signal | – | – | – | Activation of mouse GPR15 receptor was observed | dose response dependent increase in intracellular calcium levels | induces IP-10-release | pertussis toxin sensitive decrease in forskolin-induced cAMP elevation | activation | failed to induce any calcium signal | specifically activated | confirmed
